Target: human mGluR2 receptor (Homo sapiens (Human), UniProt Q14416)
Assay: [35S]GTPγS binding assay (PAM assay)
Assay type: biochemical
Details: membranes from CHO cells transfected with human mGluR2; in presence of glutamate at EC25 concentration; averages of duplicate values of 11-concentration response curves
Protocol: The [^35S]GTPγS binding assay is a functional membrane-based assay used to study G-protein coupled receptor (GPCR) function whereby incorporation of a non-hydrolysable form of GTP, [^35S]GTPγS (guanosine 5′-triphosphate, labelled with […] ^35S), is measured. The G-protein […] subunit catalyzes the exchange of guanosine 5′-diphosphate (GDP) by guanosine triphosphate (GTP) and on activation of the GPCR by an agonist, [^35S]GTPγS, becomes incorporated and cannot be cleaved to continue the exchange cycle (Harper (1998) Current Protocols in Pharmacology 2.6.1-10, John Wiley & Sons, Inc.). […] Here we describe the use of the [^35S]GTPγS binding assay using membranes from cells transfected with the human mGluR2 receptor and adapted from Schaffhauser et al ((2003) Molecular Pharmacology 4:798-810) for the detection of the positive allosteric modulation (PAM) properties of the compounds of this invention.
CHO-cells were cultured to pre-confluence and stimulated with 5 mM butyrate for 24 hours, prior to washing in PBS, and then collected by scraping in homogenisation buffer (50 mM Tris-HCl buffer, pH 7.4, 4° C.). Cell lysates were homogenized briefly (15 s) using an ultra-turrax homogenizer. The homogenate was centrifuged at 23 500×g for 10 minutes and the supernatant discarded. The pellet was resuspended in 5 mM Tris-HCl, pH 7.4 and centrifuged again (30 000×g, 20 min, 4° C.). The final pellet was resuspended in 50 mM HEPES, pH 7.4 and stored at −80° C. in appropriate aliquots before use. Protein concentration was determined by the Bradford method (Bio-Rad, USA) with bovine serum albumin as standard.
Measurement of mGluR2 positive allosteric modulatory activity of test compounds in membranes containing human mGluR2 was performed using frozen membranes that were thawed and briefly homogenized prior to pre-incubation in 96-well microplates (15 μg/assay well, 30 minutes, 30° C.) in assay buffer (50 mM HEPES pH 7.4, 100 mM NaCl, 3 mM MgCl2, 50 μM GDP, 10 μg/ml saponin,) with increasing concentrations of positive allosteric modulator (from 0.3 nM to 50 μM) and either a minimal pre-determined concentration of glutamate (PAM assay), or no added glutamate. For the PAM assay, membranes were pre-incubated with glutamate at EC25 concentration, i.e. a concentration that gives 25% of the maximal response glutamate, and is in accordance to published data (Pin et al. (1999) Eur. J. Pharmacol. 375:277-294). After addition of [^35S]GTPγS (0.1 nM, f.c.) to achieve a total reaction volume of 200 μl, microplates were shaken briefly and further incubated to allow [^35S]GTPγS incorporation on activation (30 minutes, 30° C.). The reaction was stopped by rapid vacuum filtration over glass-fibre filter plates (Unifilter 96-well GF/B filter plates, Perkin-Elmer, Downers Grove, USA) microplate using a 96-well plate cell harvester (Filtermate, Perkin-Elmer, USA), and then by washing three times with 300 μl of ice-cold wash buffer (Na2PO4.2H2O 10 mM, NaH2PO4.H2O 10 mM, pH=7.4). Filters were then air-dried, and 40 μl of liquid scintillation cocktail (Microscint-O) was added to each well, and membrane-bound [^35S]GTPγS was measured in a 96-well scintillation plate reader (Top-Count, Perkin-Elmer, USA). Non-specific [^35S]GTPγS binding is determined in the presence of cold 10 μM GTP.

Sequence of human mGluR2 receptor (Q14416 19-872): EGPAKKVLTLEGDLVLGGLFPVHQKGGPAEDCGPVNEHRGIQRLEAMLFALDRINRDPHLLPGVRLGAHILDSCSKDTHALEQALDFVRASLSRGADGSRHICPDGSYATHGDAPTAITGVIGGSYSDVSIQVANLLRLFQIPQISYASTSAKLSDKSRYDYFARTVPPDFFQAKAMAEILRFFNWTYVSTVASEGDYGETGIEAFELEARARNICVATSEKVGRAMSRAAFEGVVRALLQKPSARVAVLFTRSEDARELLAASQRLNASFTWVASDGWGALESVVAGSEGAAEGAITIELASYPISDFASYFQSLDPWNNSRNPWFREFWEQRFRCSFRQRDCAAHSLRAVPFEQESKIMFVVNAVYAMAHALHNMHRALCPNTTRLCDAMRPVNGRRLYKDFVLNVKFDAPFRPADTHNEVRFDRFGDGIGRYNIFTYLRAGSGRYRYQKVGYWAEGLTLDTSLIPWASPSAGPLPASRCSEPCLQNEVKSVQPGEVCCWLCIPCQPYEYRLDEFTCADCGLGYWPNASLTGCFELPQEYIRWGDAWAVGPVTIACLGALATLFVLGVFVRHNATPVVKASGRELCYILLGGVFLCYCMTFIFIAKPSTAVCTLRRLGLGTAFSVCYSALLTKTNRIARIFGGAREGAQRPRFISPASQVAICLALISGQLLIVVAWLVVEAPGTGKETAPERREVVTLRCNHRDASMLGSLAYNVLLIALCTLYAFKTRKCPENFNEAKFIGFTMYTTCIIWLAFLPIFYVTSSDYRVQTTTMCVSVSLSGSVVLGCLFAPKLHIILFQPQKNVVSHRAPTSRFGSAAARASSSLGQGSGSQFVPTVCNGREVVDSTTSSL

Compared with `O=c1c(Cl)c(N2CCC(c3ccccc3)CC2)ccn1CC1CC1` [Compound 1, 3′-Chloro-1′-cyclopropylmethyl-4-phenyl-3,4,5,6-tetrahydro-2H,1′H-[1,4′]bipyridinyl-2′-one], `O=c1c(Cl)c(N2CCC(c3ccccc3)CC2)ccn1CCC1CC1` [Compound 10] is higher in “GTPgS - hR2 PAM pEC50” value: 6.53 for the first, 6.88 for the second.

Compared with `O=c1c(Br)c(N2CCC(c3ccccc3)CC2)ccn1CC1CC1` [Compound 3, 3′-Bromo-1′-cyclopropylmethyl-4-phenyl-3,4,5,6-tetrahydro-2H,1′H-[1,4′]bipyridinyl-2′-one], `O=c1c(C2CC2)c(N2CCC(c3ccccc3)CC2)ccn1CC1CC1` [Compound 8, 3′-Cyclopropyl-1′-cyclopropylmethyl-4-phenyl-3,4,5,6-tetrahydro-2H,1′H-[1,4′]bipyridinyl-2′-one] is lower in “GTPgS - hR2 PAM pEC50” value: 6.88 for the first, 6.04 for the second.

First: O=c1c(C(F)(F)F)c(N2CCC(c3ccccc3)CC2)ccn1CC1CC1 [Compound 4, 1′-Cyclopropylmethyl-4-phenyl-3′-trifluoromethyl-3,4,5,6-tetrahydro-2H,1′H-[1,4′]bipyridinyl-2′-one]
Second: O=c1c(Cl)c(N2CCC(c3cccc(C(F)(F)F)c3)CC2)ccn1CC1CC1 [Compound 16]
The “GTPgS - hR2 PAM pEC50” value of the first is lower: 6.45 for the first, 7.12 for the second.

`O=c1c(Cl)c(N2CCC(c3ccccc3)CC2)ccn1Cc1ccc(OC(F)(F)F)cc1` [Compound 5, 3′-Chloro-4-phenyl-1′-(4-trifluoromethoxybenzyl)-3,4,5,6-tetrahydro-2H,1′H-[1,4′]bipyridinyl-2′-one] and `CC(C)Cn1ccc(N2CCC(c3ccccc3)CC2)c(Cl)c1=O` [Compound 19] are within 0.2 log units of each other in “GTPgS - hR2 PAM pEC50” value: 6.90 for the first, 6.71 for the second.

Compared with `N#CC1(c2ccccc2)CCN(c2ccn(CC3CC3)c(=O)c2Cl)CC1` [Compound 6, 3′-Chloro-1′-cyclopropylmethyl-2′-oxo-4-phenyl-3,4,5,6,1′,2′-hexahydro-2H-[1,4′]bipyridinyl-4-carbonitrile], `O=c1c(Cl)c(N2CCC(F)(c3ccccc3)CC2)ccn1CC1CC1` [Compound 17] is higher in “GTPgS - hR2 PAM pEC50” value: 6.34 for the first, 6.57 for the second.

`CC(C)(O)c1ccc(C2CCN(c3ccn(CC4CC4)c(=O)c3Cl)CC2)cc1` [Compound 9, 3′-Chloro-1′-cyclopropylmethyl-4-[4-(1-hydroxy-1-methyl-ethyl)-phenyl]-3,4,5,6-tetrahydro-2H,1′H-[1,4′]bipyridinyl-2′-one] and `CCCCn1ccc(N2CCC(c3ccc(C(C)(C)O)cc3)CC2)c(Cl)c1=O` [Compound 27] are within 0.2 log units of each other in “GTPgS - hR2 PAM pEC50” value: 6.57 for the first, 6.46 for the second.

`CCCCCn1ccc(N2CCC(c3ccccc3)CC2)c(Cl)c1=O` [Compound 11] and `CC(C)CCn1ccc(N2CCC(c3ccccc3)CC2)c(Cl)c1=O` [Compound 18] are within 0.2 log units of each other in “GTPgS - hR2 PAM pEC50” value: 7.11 for the first, 7.20 for the second.

`O=c1c(Cl)c(N2CCC(c3ccccc3F)CC2)ccn1CC1CC1` [Compound 12] and `O=c1c(Cl)c(N2CCC(c3ccccc3Cl)CC2)ccn1CC1CC1` [Compound 15] are within 0.2 log units of each other in “GTPgS - hR2 PAM pEC50” value: 7.03 for the first, 7.00 for the second.

Going from `O=c1c(Cl)c(N2CCC(c3ccc(N4CCOCC4)cc3)CC2)ccn1CC1CC1` [Compound 13] to `O=c1c(Cl)c(N2CCC(c3ccc(F)cc3F)CC2)ccn1CC1CC1` [Compound 14], the “GTPgS - hR2 PAM pEC50” value rises from 6.64 to 6.92.

Compared with `O=c1c(Cl)c(N2CCC(OCCF)(c3ccccc3)CC2)ccn1CC1CC1` [Compound 20, 3′-Chloro-1′-cyclopropylmethyl-4-(2-fluoro-ethoxy)-4-phenyl-3,4,5,6-tetrahydro-2H,1′H-[1,4′]bipyridinyl-2′-one], `O=c1c(Cl)c(N2CCC(CF)(c3ccccc3)CC2)ccn1CC1CC1` [Compound 21, 3′-Chloro-1′-cyclopropylmethyl-4-fluoromethyl-4-phenyl-3,4,5,6-tetrahydro-2H,1′H-[1,4′]bipyridinyl-2′-one] is lower in “GTPgS - hR2 PAM pEC50” value: 6.91 for the first, 6.25 for the second.

Compared with `CCCCn1ccc(N2CCC(CO)(c3ccccc3)CC2)c(Cl)c1=O` [Compound 22, 1′-Butyl-3′-chloro-4-hydroxymethyl-4-phenyl-3,4,5,6-tetrahydro-2H,1′H-[1,4′]bipyridinyl-2′-one], `CC(C)CCn1ccc(N2CCC(F)(c3ccccc3)CC2)c(Cl)c1=O` [Compound 23] is higher in “GTPgS - hR2 PAM pEC50” value: 6.05 for the first, 6.58 for the second.

`CC(C)CCn1ccc(N2CCC(c3ccc(F)cc3F)CC2)c(Cl)c1=O` [Compound 24] and `CCCCn1ccc(N2CCC(c3ccc(F)cc3F)CC2)c(Cl)c1=O` [Compound 25] are within 0.2 log units of each other in “GTPgS - hR2 PAM pEC50” value: 6.91 for the first, 6.83 for the second.

First: O=c1c(Cl)c(N2CCC(F)(c3ccccc3)CC2)ccn1CCC1CC1 [Compound 26]
Second: CCCCn1ccc(N2CCC(c3ccccc3C(C)(C)O)CC2)c(Cl)c1=O [Compound 28, 1′-Butyl-3′-chloro-4-[2-(1-hydroxy-1-methyl-ethyl)-phenyl]-3,4,5,6-tetrahydro-2H,1′H-[1,4′]bipyridinyl-2′-one]
The “GTPgS - hR2 PAM pEC50” value of the first is lower: 6.41 for the first, 7.06 for the second.

`CCCCn1ccc(N2CCC(c3ccc(C(C)(C)O)cc3F)CC2)c(Cl)c1=O` [Compound 29, 1′-Butyl-3′-chloro-4-[2-fluoro-4-(1-hydroxy-1-methyl-ethyl)-phenyl]-3,4,5,6-tetrahydro-2H,1′H-[1,4′]bipyridinyl-2′-one] was tested, and the “GTPgS - hR2 PAM pEC50” value was 6.88.

Same assay, conditions: membranes from CHO cells transfected with human mGluR2; in presence of glutamate at EC25 concentration; averages of duplicate values of 11-concentration response curves; read-out: GTPgS - hR2 PAM pEC50 (converted)

Molecule `CCCCn1ccc(N2CCC(F)(c3ccccc3)CC2)c(Cl)c1=O` [Compound 7] has an EC50 of 240 nM.
